In patent publication EP4700021A1, “NOVEL COMPOUND AND PHARMACEUTICAL COMPOSITION COMPRISING SAME AS ACTIVE INGREDIENT” (Sapiensbio Inc., priority 2023, dated 2025):

Assays:
COL1A1 mRNA = assay: qRT-PCR of COL1A1 mRNA in TGF-β1-treated human renal fibroblasts; format: cell-based; details: human renal fibroblasts (HRFs); 10 and 50 µM; TGF-β1 (5 ng/mL); 48 hours; FIG. 3
Method: (§1) Here, to confirm the degree of fibrosis, ACTA2 or COL1A1 mRNA, which can express α-SMA or collagen type 1, was used as an indicator. α-SMA is a marker for activated myofibroblasts, which are the main effector cells of fibrosis, and myofibroblasts with increased α-SMA expression are known to cause fibrosis by producing a fibrotic protein such as collagen type 1.
(§2) Specifically, human renal fibroblasts (HRFs) were seeded, and cultured for 24 hours under a nutrient-deficient condition for effective cell activation. Afterward, the cells were treated with the compounds (Compounds 51 and 41) according to the present invention, together with TGF-β1 (5 ng/mL) to induce fibrosis, at 10 and 50 µM for 48 hours, respectively, and then cultured to extract RNA therefrom. The RNA was used to perform qRT-PCR. From the experimental results, the mRNA expression levels of ACTA2 and COL1A1 were confirmed, thereby verifying the therapeutic effects of the compounds.

F-actin = assay: inhibition of F-actin formation (rhodamine phalloidin staining) in TGF-β1-treated MRC-5 cells; format: cell-based, human; details: compound 10 µM, TGF-β1 (5 ng/mL), 72 hours, FIG. 1
Method: In this experimental example, 2 hours after human lung-derived fibroblasts (MRC-5 cells) were treated with Compound 41 (10 µM) or Compound 51 (10 µM) according to the present invention, or DMSO, dissolved in 0.5% FBS-containing serum, TGF-β1 (5 ng/mL) was treated to induce fibrosis. After 72 hours, the cells were immobilized with a 2% paraformaldehyde solution for 10 minutes, and to impart cell membrane permeability, a 0.1% Triton X-100 solution was treated for 10 minutes, and a 1% bovine serum albumin (BSA) solution was treated to prevent non-specific binding. For immunostaining, anti-GAPDH (BIO-RAD) was first treated as a primary antibody, and Alexa Fluor™ Plus 488 for GAPDH labeling was used as a secondary antibody. For staining of an actin cytoskeleton, particularly, F-actin, rhodamine phalloidin (Cytoskeleton) was used to confirm the increase and decrease in F-actin caused by the compounds. The immunohistochemical experimental results were confirmed with a STELLARIS 5 confocal microscope (Leica), F-actin stained with rhodamine phalloidin was standardized with GAPDH labeled with Alexa Fluor™ Plus 488 for quantification.

α-SMA = assay: in vitro α-SMA expression inhibition (immunostaining, confocal microscopy) in TGF-β1-treated MRC-5 cells; format: cell-based, human; details: Homo sapiens, TGF-β1 (5 ng/mL), 72 hours, standardized using GAPDH
Description: When scars are generated in tissue, fibroblasts undergo fibroblast-to-myofibroblast transition (FMT), and the resulting myofibroblasts produce the extracellular matrix, leading to tissue fibrosis. α-SMA is a representative biomarker of myofibroblasts, and its expression greatly increases as FMT progresses. Accordingly, through the evaluation of α-SMA expression inhibitory activity, the efficacy of the compounds in inhibiting fibrosis may be evaluated. Therefore, the inhibitory activity of the compounds of the present invention on α-SMA expression was evaluated in cells. To more accurately evaluate the inhibition of α-SMA expression, IC50 values were determined by treating human lung-derived fibroblasts (MRC-5 cells) with the compounds of the present invention in a concentration-dependent manner.
Specifically, 2 hours after the MRC-5 cells were treated with DMSO or compounds dissolved in serum containing 0.5% fetal bovine serum (FBS) in a concentration-dependent manner, fibrosis was induced by treatment with TGF-β1 (5 ng/mL). After 72 hours, the cells were immobilized with a 2% paraformaldehyde solution for 10 minutes, and to impart cell membrane permeability, a 0.1% Triton X-100 solution was treated for 10 minutes, and a 1% bovine serum albumin (BSA) solution was treated to prevent non-specific binding. For immunostaining, anti-GAPDH (BIO-RAD) was first treated as a primary antibody, and Alexa Fluor™ Plus 555 for GAPDH labeling was used as a secondary antibody. For α-SMA staining, an FITC fluorescence-tagged α-SMA primary antibody was used, and thus the increase and decrease in α-SMA caused by the compounds were evaluated. The immunohistochemical experimental results were confirmed with a STELLARIS 5 confocal microscope (Leica), and FITC-stained α-SMA was standardized using GAPDH labeled with Alexa FluorTM Plus 555 for quantification. The IC50 of the compounds according to the present invention was calculated through statistical analysis (linear mixed effects model). […]

ACTA2 mRNA [1] = assay: qRT-PCR of ACTA2 mRNA in TGF-β1-treated human hepatic stellate cells; format: cell-based; details: human hepatic stellate cells (HHSCs); 10 and 50 µM; TGF-β1 (5 ng/mL); 48 hours; FIG. 2
Method: as §1, with “mRNA that” for “mRNA, which”, “1” for “1,”, “of” for “for”, “COL1A1.” for “collagen type 1.”
as §2, with “hepatic stellate cells (HHSCs)” for “renal fibroblasts (HRFs)”

ACTA2 mRNA [2] = assay: qRT-PCR of ACTA2 mRNA in TGF-β1-treated human renal fibroblasts; format: cell-based; details: human renal fibroblasts (HRFs); 10 and 50 µM; TGF-β1 (5 ng/mL); 48 hours; FIG. 3
Method: as §1, §2

N[C@H]1CCN(C(=O)N2CCN(Cc3ccc(F)cc3)c3ccccc32)C1.O=C(O)/C=C/C(=O)O [Compound 41, (S)-(3-aminopyrrolidin-1-yl)(4-(4-fluorobenzyl)-3,4-dihydroquinoxaline-1(2H)-yl)methanone fumaric acid salt]
COL1A1 mRNA expression (COL1A1 mRNA): effectively inhibit the mRNA expression
intracellular F-actin formation (F-actin): reduced to a level similar to that of the group not treated with TGF-β1
IC50 (α-SMA): < 1 µM
ACTA2 mRNA expression (ACTA2 mRNA [1]): effectively inhibit the mRNA expression
ACTA2 mRNA expression (ACTA2 mRNA [2]): effectively inhibit the mRNA expression

O=C(NC1CCNCC1)N1CCN(c2ccccn2)c2ccccc21 [Compound 13, N-(piperidin-4-yl)-4-(pyridin-2-yl)-3,4-dihydroquinoxaline-1(2H)-carboxamide]
IC50 (α-SMA): 1 to 10 µM

CC(C)CN1CC[C@H](NC(=O)N2CCN(c3cnccn3)c3ccccc32)C1 [Compound 22, (S)-N-(1-isobutylpyrrolidin-3-yl)-4-(pyrazin-2-yl)-3,4-dihydroquinoxaline-1(2H)-carboxamide]
IC50 (α-SMA): ≤ 30 µM

CN1CCC(COC(=O)N2CCN(Cc3ccccn3)c3ccccc32)CC1 [Compound 65, (1-methylpiperidin-4-yl)methyl-4-(pyridin-2-ylmethyl)-3,4-dihydroquinoxaline-1(2H)-carboxylate]
IC50 (α-SMA): 10 to 30 µM

O=C(NC[C@H]1CCOC1)N1CCN(Cc2ccccn2)c2ccccc21 [Compound 60, (R)-4-(pyridin-2-ylmethyl)-N-((tetrahydrofuran-3-yl)methyl)-3,4-dihydroquinoxaline-1(2H)-carboxamide]
IC50 (α-SMA): 10 to 30 µM

CN1CC[C@H](NC(=O)N2CCN(c3cnccn3)c3ccccc32)C1 [Compound 20, (S)-N-(1-methylpyrrolidin-3-yl)-4-(pyrazin-2-yl)-3,4-dihydroquinoxaline-1(2H)-carboxamide]
IC50 (α-SMA): < 1 µM

CC(C)CN1CCC(NC(=O)N2CCN(c3cnccn3)c3ccccc32)CC1 [Compound 27, N-(1-isobutylpiperidin-4-yl)-4-(pyrazin-2-yl)-3,4-dihydroquinoxaline-1(2H)-carboxamide]
IC50 (α-SMA): 10 to 30 µM

CC1(NC(=O)N2CCN(Cc3ccccn3)c3ccccc32)COC1 [Compound 55, N-(3-Methyloxetan-3-yl)-4-(pyridin-2-ylmethyl)-3,4-dihydroquinoxaline-1(2H)-carboxamide]
IC50 (α-SMA): < 1 µM

O=C(N1CCNCC1)N1CCN(c2ccccc2Cl)c2ccccc21 [Compound 10, (4-(2-chlorophenyl)-3,4-dihydroquinoxaline-1(2H)-yl)(piperazin-1-yl)methanone]
IC50 (α-SMA): < 1 µM

O=C(NCC1CC1)N1CCN(c2ccc(F)cc2)c2cc(F)ccc21 [Compound 3, N-(cyclopropylmethyl)-6-fluoro-4-(4-fluorophenyl)-3,4-dihydroquinoxaline-1(2H)-carboxamide]
IC50 (α-SMA): 1 to 10 µM

CN(C)[C@H]1CCN(C(=O)N2CCN(Cc3ccccn3)c3ccccc32)C1 [Compound 46, (S)-(3-(dimethylamino)pyrrolidin-1-yl)(4-(pyridin-2-ylmethyl)-3,4-dihydroquinoxaline-1(2H)-yl)methanone]
IC50 (α-SMA): ≤ 30 µM

O=C(N1CCCCC1)N1CCN(C2CCCCC2)c2ccccc21 [Compound 71]
IC50 (α-SMA): 1 to 10 µM

CC(C)N1CC[C@H](NC(=O)N2CCN(c3ccccn3)c3ccccc32)C1 [Compound 11, (S)-N-(1-isopropylpyrrolidin-3-yl)-4-(pyridin-2-yl)-3,4-dihydroquinoxaline-1(2H)-carboxamide]
IC50 (α-SMA): 1 to 10 µM

CC(C)CN[C@H]1CCN(C(=O)N2CCN(Cc3ccccn3)c3ccccc32)C1.O=C(O)/C=C/C(=O)O [Compound 51, (S)-(3-(isobutylamino)pyrrolidin-1-yl)(4-(pyridin-2-ylmethyl)-3,4-dihydroquinoxaline-1(2H)-yl)methanone fumaric acid salt]
COL1A1 mRNA expression (COL1A1 mRNA): effectively inhibit the mRNA expression
intracellular F-actin formation (F-actin): reduced to a level similar to that of the group not treated with TGF-β1
IC50 (α-SMA): < 1 µM
ACTA2 mRNA expression (ACTA2 mRNA [1]): effectively inhibit the mRNA expression
ACTA2 mRNA expression (ACTA2 mRNA [2]): effectively inhibit the mRNA expression

O=C(NCC1CCNCC1)N1CCN(Cc2ncccc2F)c2ccccc21 [Compound 68, 4-((3-fluoropyridin-2-yl)methyl)-N-(piperidin-4-ylmethyl)-3,4-dihydroquinoxaline-1(2H)-carboxamide]
IC50 (α-SMA): ≤ 30 µM
